Where two headings read alike, the source gives them in different places.
Legend:
[1] = molecular target: T1, F1F0-ATPase (Bos taurus, UniProt P13621); assay: Inhibition of F1F0-ATPase activity in synthesizing ATP; format: biochemical; settings: inhibition of ATP synthesis by F1F0-ATPase; read-out: ATP Syn IC50
T1 construct: from tissue

[2] = test system: Ramos cells; assay: Cytotoxicity in Ramos cells; format: cell-based; settings: cytotoxicity in Ramos cells, read-out: Ramos Cell EC50

SMILES | IC50 [1] [µM] | EC50 ([2]; Homo sapiens) [µM] | EC50 [2] [µM]
O=C(N=C(Nc1cc(-c2ccccc2)[nH]n1)NC1CCOCC1)c1ccc(C(F)(F)F)cc1 [Compound A-466] | > 10 | > 10 | –
CC(C)(C)N/C(=N/C(=O)c1ccc(S(N)(=O)=O)cc1)Nc1cc(-c2ccc(F)cc2)n[nH]1 [Compound A-375] | < 10 | – | < 10
CC(C)(C)N/C(=N/C(=O)c1cccc(Cl)c1)Nc1cc(-c2ccc(F)cc2)n[nH]1 [Compound A-451] | < 10 | – | < 10
O=C(N=C(Nc1cc(-c2cc(F)cc(F)c2)n[nH]1)Nc1ccc(F)cc1Cl)c1ccc(C(F)(F)F)cc1 [Compound A-294] | < 10 | > 10 | –
CC(C)(C)NC(=NC(=O)c1ccc(F)c(F)c1)Nc1cc(-c2ccccc2)n[nH]1 [Compound A-435] | < 10 | < 10 | –
CCC(C)N/C(=N/C(=O)c1ccc(Cl)c(F)c1)Nc1cc(-c2ccc(F)cc2)n[nH]1 (stereo not drawn) [Compound A-219] | < 10 | – | < 10
COc1cccc(CN/C(=N/C(=O)c2cccc(F)c2)Nc2cc(-c3ccc(F)cc3)[nH]n2)c1 [Compound A-398] | < 10 | – | < 10
CC(C)(C)N/C(=N/C(=O)c1ccc(S(C)(=O)=O)cc1)Nc1cc(-c2ccc(F)cc2)n[nH]1 [Compound A-498] | < 10 | – | < 10
O=C(/N=C(\Nc1cc(-c2cccc(C(F)(F)F)c2)[nH]n1)NC1CCCC1)c1ccc(C(F)(F)F)cc1 [Compound A-421] | < 10 | – | < 10
O=C(N=C(Nc1cc(-c2ccc(F)cc2)n[nH]1)NC1CCOCC1)c1ccc(Cl)c(F)c1 [Compound A-139] | > 10 | > 10 | –
C[C@@H](N/C(=N\C(=O)c1ccc(Cl)c(F)c1)Nc1cc(C(F)(F)F)n[nH]1)C1CCCCC1 [Compound A-117] | < 10 | < 10 | –
CC(C)(C)NC(=NC(=O)c1cccc(O)c1)Nc1cc(-c2ccc(F)cc2)n[nH]1 [Compound A-525] | < 10 | < 10 | –
CCC(C)N/C(=N/C(=O)c1cccc(S(C)(=O)=O)c1)Nc1cc(-c2ccc(F)cc2)n[nH]1 (stereo not drawn) [Compound A-430] | < 10 | – | < 10
CCOCCN/C(=N/C(=O)c1ccc(F)c(F)c1)Nc1cc(-c2ccc(F)cc2)n[nH]1 [Compound A-235] | < 10 | – | < 10
CC(C)CN/C(=N/C(=O)c1ccc(F)c(F)c1)Nc1cc(-c2ccc(Cl)cc2)n[nH]1 [Compound A-377] | < 10 | – | < 10
Cc1ccc(-c2cc(N/C(=N\C(=O)c3ccc(F)c(F)c3)NCCCOC(C)C)[nH]n2)cc1F [Compound A-322] | < 10 | – | < 10
O=C(N=C(Nc1cc(F)cc(Cl)c1)Nc1cc(-c2ccc(Cl)cc2)n[nH]1)c1ccc(Cl)c(F)c1 [Compound A-149] | < 10 | < 10 | –
CCOCCCN/C(=N/C(=O)c1ccc(F)cc1)Nc1cc(-c2ccc(F)cc2)n[nH]1 [Compound A-280] | < 10 | – | > 10
O=C(/N=C(/NCc1ccc(F)c(Cl)c1)Nc1cc(C(F)(F)F)[nH]n1)c1ccc(F)c(F)c1 [Compound A-25] | < 10 | < 10 | –
CC(C)(C)N/C(=N/C(=O)c1ccc(F)c(F)c1)Nc1cc(-c2ccc(CO)cc2)[nH]n1 [Compound A-159] | < 10 | – | < 10
CC(C)(C)N/C(=N/C(=O)c1ccc(C(F)(F)F)cc1)Nc1cc(-c2ccc(F)cc2)[nH]n1 [Compound A-50] | < 10 | < 10 | –
Cc1cc(N/C(=N\C(=O)c2ccc(C(F)(F)F)cc2)NC2CCCC2)n[nH]1 [Compound A-185] | < 10 | – | < 10
CCC(C)NC(=NC(=O)c1ccc(F)c(F)c1)Nc1cc(-c2cc(F)cc(Cl)c2)n[nH]1 (stereo not drawn) [Compound A-285] | < 10 | < 10 | –
O=C(N=C(Nc1cc(C(F)(F)F)n[nH]1)NC1CCC(O)CC1)c1ccc(F)c(F)c1 (stereo not drawn) [Compound A-559] | > 10 | > 10 | –
CC(C)(C)NC(=NC(=O)c1cccc(C(F)(F)F)c1)Nc1cc(-c2ccc(F)cc2)n[nH]1 [Compound A-448] | < 10 | < 10 | –
CCOCCCN/C(=N/C(=O)c1ccc(F)c(F)c1)Nc1cc(-c2ccc(Cl)cc2)n[nH]1 [Compound A-277] | < 10 | – | > 10

SMILES | IC50 [1] [µM] | EC50 ([2]; Homo sapiens) [µM] | EC50 [2] [µM]
O=C(N=C(NCc1ccc(F)cc1Cl)Nc1cc(-c2ccc(F)cc2)n[nH]1)c1ccc(F)c(F)c1 [Compound A-440] | < 10 | < 10 | –
CC(C)(C)N/C(=N/C(=O)c1ccc(C(F)(F)F)cc1)Nc1[nH]nc(C(C)(C)C)c1F [Compound A-340] | < 10 | – | < 10
CC(C)(C)N/C(=N/C(=O)c1cccc(C(F)(F)F)c1)Nc1cc(C(F)(F)F)[nH]n1 [Compound A-77] | < 10 | < 10 | –
CC(C)CN/C(=N/C(=O)c1ccc(Cl)c(F)c1)Nc1cc(-c2cc(F)cc(F)c2)n[nH]1 [Compound A-352] | < 10 | – | < 10
CC(C)N/C(=N/C(=O)c1ccc(F)c(F)c1)Nc1cc(-c2ccc(F)cc2)n[nH]1 [Compound A-262] | < 10 | – | < 10
O=C(N=C(Nc1cc(-c2ccc(Cl)cc2)n[nH]1)NC1CCC1)c1ccc(F)c(F)c1 [Compound A-224] | < 10 | > 10 | –
CC(N/C(=N/C(=O)c1ccc(F)c(F)c1)Nc1cc(C(F)(F)F)[nH]n1)c1ccccc1Cl (stereo not drawn) [Compound A-28] | < 10 | < 10 | –
CC(C)(C)N/C(=N/C(=O)c1ccc(F)cc1F)Nc1cc(-c2ccc(F)cc2)n[nH]1 [Compound A-489] | < 10 | – | < 10
CC(C)(C)N/C(=N/C(=O)c1ccc(C(F)(F)F)nc1)Nc1cc(C(F)(F)F)[nH]n1 [Compound A-79] | < 10 | < 10 | –
O=C(/N=C(\Nc1cc(C(F)(F)F)[nH]n1)NC1(CO)CCCC1)c1ccc(F)cc1 [Compound A-415] | < 10 | – | > 10
O=C(/N=C(/NCc1ccc(F)cc1Cl)Nc1cc(-c2cccc(Cl)c2)n[nH]1)c1ccc(Cl)c(F)c1 [Compound A-472] | < 10 | – | > 10
Cc1cc(C(=O)/N=C(/NCc2ccc(F)cc2Cl)Nc2cc(C(F)(F)F)[nH]n2)ccc1F [Compound A-555] | < 10 | – | < 10
O=C(/N=C(/Nc1cc(F)cc(Cl)c1)Nc1cc(C(F)F)[nH]n1)c1ccc(Cl)cc1 [Compound A-57] | < 10 | < 10 | –
Cc1ccc(C(=O)/N=C(\Nc2cc(-c3ccc(F)cc3)[nH]n2)NC(C)(C)C)cc1F [Compound A-554] | < 10 | – | < 10
O=C(/N=C(\Nc1cc(-c2ccc(F)cc2)n[nH]1)NC1CCC(F)(F)CC1)c1ccc(F)cc1 [Compound A-501] | < 10 | – | < 10
O=C(/N=C(\Nc1cc(C(F)(F)F)[nH]n1)NC1CCC(O)CC1)c1ccc(C(F)(F)F)cc1 (stereo not drawn) [Compound A-560] | < 10 | – | > 10
O=C(/N=C(\Nc1cc(-c2ccc(Cl)cc2)n[nH]1)NC1CCOCC1)c1ccc(Cl)c(F)c1 [Compound A-464] | > 10 | – | > 10
CCOCC(C)NC(=NC(=O)c1ccc(F)c(F)c1)Nc1cc(-c2ccc(F)cc2)n[nH]1 (stereo not drawn) [Compound A-263] | < 10 | – | < 10
COc1ccc(C(=O)N=C(NCc2ccc(F)cc2Cl)Nc2cc(C(F)(F)F)n[nH]2)cc1 [Compound A-541] | < 10 | < 10 | –
CC1(CN/C(=N/C(=O)c2cccc(F)c2)Nc2cc(-c3ccc(F)cc3)n[nH]2)CCCO1 (stereo not drawn) [Compound A-201] | < 10 | – | > 10
O=C(/N=C(/NCC1CCOC1)Nc1cc(C(F)(F)F)[nH]n1)c1ccc(F)cc1 (stereo not drawn) [Compound A-406] | < 10 | – | > 10
Cc1ccccc1CNC(=NC(=O)c1ccc(Cl)cc1)Nc1cc(-c2ccc(F)cc2)n[nH]1 [Compound A-401] | < 10 | < 10 | –
COc1ccccc1C(=O)N=C(NCc1ccc(F)cc1Cl)Nc1cc(C(F)(F)F)n[nH]1 [Compound A-543] | < 10 | < 10 | –
CC(C)(C)N/C(=N/C(=O)c1ccc(C(F)(F)F)cc1)Nc1cc(C(=O)O)n[nH]1 [Compound A-565, (Z)-5-(3-(tert-Butyl)-2-(4-(trifluoromethyl)benzoyl)guanidino)-1H-pyrazole-3-carboxylic acid] | > 10 | > 10 | –
CCC(C)N/C(=N/C(=O)c1ccc(Cl)cc1)Nc1cc(-c2cc(F)cc(F)c2)n[nH]1 (stereo not drawn) [Compound A-234] | < 10 | – | < 10

Source: patent US9139532B2, “Pyrazolyl guanidine F1F0-atpase inhibitors and therapeutic uses thereof” (Lycera Corporation, priority 2010, dated 2015)
